In patent US5605929A, “Methods and compositions for inhibiting 5α-reductase activity” (priority 1995, dated 1997):
Where “and” joins values, the source holds several entries; their conditions need not be identical. Equal entries are not always repeated. Where two headings read alike, the source gives them in different places.

Columns and labels:
[1] = EGCG ip 7 days, male rats, body and organ weights; format: in vivo, rat; conditions: based on the increase in the weight
Experimental: (§1) Male Sprague-Dawley rats (body weight 180 g±10 g) were used. Each group had 5 rats. […] Rats in the control group received 0.1 ml 30% ethanol.

[2] = system: male accessory reproductive organs and preputial organs; test: EGCG ip 7 days, male rats, body and organ weights; format: in vivo, rat
Experimental: as §1

[3] = system: prostate and preputial organ; test: Catechins ip 7 days, large rats; format: in vivo, rat
Experimental: Male Sprague Dawley rats, 172±20 g body weight, were used. Each group had 5 rats. […] The control rats received 0.3 ml of 30% ethanol.

[4] = system: prostate and preputial glands; test: EGCG ip 7 days, normal and castrated rats with androgen; format: in vivo, rat; conditions: for prostate weight reduction: 5 mg/day
Experimental: Male Sprague-Dawley rats, 60±5 g body weight, were used. Rats were divided into 6 groups. Each group had 5 rats. Groups 1 and 2 were normal rats while the other 4 groups had rats castrated on the first day. […] The control rats (Group 1) received 0.1 ml of 30% ethanol.

[5] = system: androgen-dependent organs; format: in vivo, rat
Experimental: The control rats were injected with 0.3 ml of 30% ethanol.

[6] = system: human breast tumor cell line, MDF-7; test: Human breast tumor growth in nude mice; format: in vivo; conditions: 1 mg/mouse/day, 2 weeks
Experimental: For breast tumor studies, human breast tumor cell line, MDF-7 (1 million cells) was injected into female nude mice. After 5 weeks, the tumor was over 1000 mm^3.

[7] = biological target: T1, HIV-1 reverse transcriptase (Human immunodeficiency virus type 1 group M subtype B, UniProt P04585); conditions: cited from earlier work
T1 construct: HIV-1 reverse transcriptase

[8] = biological target: rat small intestinal maltase; conditions: cited from earlier work
[9] = system: forehead sebum production; test: Forehead sebum production (L/R ratio), human male; format: in vivo
Experimental: A volunteer was used to test and analyze sebum production from the forehead region. The forehead was washed thoroughly by soap twice and cleaned by 70% isopropyl alcohol twice. Sebum production was measured 30 to 60 minutes later by a sebum meter (Courage/Khazaka Electronic GmbH, Germany). The sebum meter tape probe (7 mm×8 mm) covered 56 mm^2 area in each measurement. Ten measurements were made within the 4 cm square area (16 cm^2) located at the middle of the left or right side forehead between the eyebrow and the hair line.
The sebum meter detected the difference in the transparency of the tape before and after the tape was placed on the forehead for 30 seconds and expressed the difference in an arbitrary number (S-value) between 0 to 300 (or higher). S-values of sebum accumulated on the foreheads of men are usually 200 to 300.

[10] = biological target: T2, 5α-Reductase of Rat Liver Microsomes (Rattus norvegicus, UniProt P24008)
T2 sequence (P24008 1-259): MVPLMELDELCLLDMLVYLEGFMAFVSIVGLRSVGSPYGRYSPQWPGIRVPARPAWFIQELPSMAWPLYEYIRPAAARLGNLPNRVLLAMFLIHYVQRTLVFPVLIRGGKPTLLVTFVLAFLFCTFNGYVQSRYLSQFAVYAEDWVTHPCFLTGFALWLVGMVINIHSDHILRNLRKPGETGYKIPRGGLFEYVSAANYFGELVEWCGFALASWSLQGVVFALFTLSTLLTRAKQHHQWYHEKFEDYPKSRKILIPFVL
Experimental: (§2) Briefly, the binding assay solution, in a final volume of 0.15 ml, contained microsomes (2-20 μg of protein), 0.08 μCi of [^3 H]4-MA, 0.1 mM-NADPH, 1 mM-dithiothreitol and 50 mM-potassium phosphate, pH 7.0, with or without the indicated amount of a lipid or an inhibitor preparation. Lipids were dissolved in ethanol and added in 1-5 μl volumes. Control tubes received the same amount of ethanol. After incubation at 0° C. for 1 h, the [^3 H]4-MA bound to microsomes was determined by collecting microsomes on a Whatman GF/1F glass fibre filter and washing with 10 ml of 20 mM-potassium phosphate, pH 7.0, containing 0.01% CHAPS to remove unbound [^3 H]4-MA.
(§3) Microsomes were prepared at 4° C. from a buffered 0.32M-sucrose homogenate of human liver and from the livers of adult Sprague-Dawley female rats by differential centrifugation as described previously (Liang et al., 1990), and were used in the assay of 5α-reductase activity. In some experiments, microsomes were solubilized with 0.1% polyoxyethylene ether W-1 as described previously (Liang et al., 1990), except for the substitution of polyoxyethylene ether W-1 for Lubrol-WX.

NADH:menadione reductase = conditions: 10 to 40 μM
[11] = system: UDP-glucuronic acid:5α-DHT glucuronosyl transferase; conditions: 10 to 40 μM
[12] = system: human liver microsomes 5α-reductase; conditions: vs rat liver microsomes
Experimental: as §2, §3

[13] = system: flank organs, seminal vesicles, prostate and other organs
LNCaP = test: cells; conditions: Homo sapiens, read-out: 5α-DHT formed (% of control)
[14] = biological target: T2, 5α-Reductase of Rat Liver Microsomes; test: biochemical; conditions: for Ki: apparent Ki values for [^3 H]4-MA
Experimental: as §2, §3

[15] = based on the increase in the weight
[16] = read-out: % Inhibition of [^3 H]4-MA binding

With `O=C(O[C@@H]1Cc2c(O)cc(O)cc2O[C@@H]1c1cc(O)c(O)c(O)c1)c1cc(O)c(O)c(O)c1` [EGCG, (-)Epigallocatechin-3-gallate] the “Body weight, % of Control, Increase” value [1] was 20.3 % of Control, the final body weight ([2]; 15 mg/day, 7 days, control 238.2 ± 10.6) was 191.8 ± 12.0 g and the Coagulating gland ([2]; 15 mg/day, control 78.0 ± 5.9) was 45.5 ± 11.7 mg. The Preputial gland ([2]; 15 mg/day, control 126.8 ± 24.8) was 76.1 ± 33.1 mg, the Ventral prostate ([2]; 15 mg/day, control 201.9 ± 36.2) was 142.2 ± 10.7 mg and the “Seminal Vesicle” value ([2]; 15 mg/day, control 234.3 ± 11.7) was 164.9 ± 30.4 mg. For the same compound, the “Coagulating gland, % of Control, Final” value ([2]; based on the full weight) was 58.3 % of Control, the “Final body weight, % of Control, Final” value ([2]; based on the full weight) was 80.5 % of Control and the “Preputial gland, % of Control, Final” value ([2]; based on the full weight) was 60.0 % of Control. The “Seminal Vesicle, % of Control, Final” value ([2]; based on the full weight) was 70.4 % of Control, the “Ventral prostate, % of Control, Final” value ([2]; based on the full weight) was 70.4 % of Control and the “Coagulating gland, % of Control, Increase” value [2, 15] was 39.8 % of Control. For the same compound, the “Seminal Vesicle, % of Control, Increase” value [2, 15] was 52.3 % of Control, the “Ventral prostate, % of Control, Increase” value [2, 15] was 62.0 % of Control and the body weight decrease ([3]; 15 mg ip/day, 7 days) was “about 15%”. For the same compound, the coagulating gland weight ([3]; 15 mg ip/day, 7 days) was 34 % of organ weight in normal rats, the dorsolateral prostate weight ([3]; 15 mg ip/day, 7 days) was 46 % of organ weight in normal rats and the kidney weight ([3]; 15 mg ip/day, 7 days) was 74 % of organ weight in normal rats. For the same compound, the preputial gland weight ([3]; 15 mg ip/day, 7 days) was 35 % of organ weight in normal rats, the seminal vesicle weight ([3]; 15 mg ip/day, 7 days) was 41 % of organ weight in normal rats and the testis weight ([3]; 15 mg ip/day, 7 days) was 84 % of organ weight in normal rats. The ventral prostate weight ([3]; 15 mg ip/day, 7 days) was 46 % of organ weight in normal rats, the final body weight ([3]; 15 mg ip/day, 7 days, normal 232±10 g) was 147 ± 14 g and the “final body weight reduction vs normal rats” value ([3]; end of study) was “about 36%”. The “prostate weight reduction” value ([4]; castrated + 5α-DHT) was “no reduction”, the prostate weight reduction ([4]; castrated + testosterone) was “about 23%” and the body weight reduction ([4]; normal and castrated rats with testosterone or 5α-DHT, 7 days) was 8±1%. For the same compound, the prostate weight reduction ([4]; normal rats) was “about 30%”, the “pathology examination of organs and blood” value ([4]; rat, in vivo) was “did not reveal any abnormal growth or pathogenic effects” and the body weight reduction ([5]; 10 mg per day) was “about 10%”. The “coagulating glands weight reduction” value ([5]; 10 mg per day) was “about 30%”, the “dorsolateral prostate weight reduction” value ([5]; 10 mg per day) was “about 30%” and the “effect on weights of testis and kidney” value ([5]; 10 mg per day) was “not significant”. The “preputial glands weight loss” value ([5]; 10 mg per day) was 20 to 25%, the “seminal vesicles weight loss” value ([5]; 10 mg per day) was 20 to 25% and the “ventral prostate weight reduction” value ([5]; 10 mg per day) was “about 30%”. The body weight loss ([5]; 10 mg per day, discussion) was “less than 10%”, the prostate weight loss ([5]; 10 mg per day, discussion) was “more than 30%” and the body weight reduction ([5]; 15 mg per day) was “about 25%”. For the same compound, the “effect on weights of testis and kidney” value ([5]; 15 mg per day) was ≤ 10%, the “weight reduction for all of these organs” value ([5]; 15 mg per day, prostates, coagulating glands, seminal vesicles, preputial glands) was ≥ 60% and the “reversibility of body weight effect” value ([5]; application stopped, FIG. 38) was “reversible”. For the same compound, the “organ weights” value ([5]; male rats, ventral and dorsolateral prostates, coagulating glands, seminal vesicles, preputial glands) was “without affecting the weight of testis or kidney”, the tumor reduction [6] was 50% and the IC50 [7] was 40 nM. For the same compound, the IC50 [8] was 50000 to 500000 nM.

For `CCCCC/C=C\C/C=C\C/C=C\CCCCC(=O)O` [γ-Linolenic acid, γ-linolenic acid], the “L/R sebum ratio at end of treatment” value ([9]; 20 mg twice a day, 6 days) was 0.22, the “L/R sebum ratio recovered after treatment stopped” value ([9]; 16 days after stop) was 1.20±0.14 and the “extent of inhibition by 10 μM γ-LA” value [10] was 93% and 52% and 88%. The “inhibition before removal of free γ-LA” value [10] was 78%, the “maximal binding of [^3 H]4-MA” value [10] was 0.45 pmol/10 μg protein and 0.40 pmol/10 μg protein and the onset of inhibition [10] was “within a minute”. The “inhibition after microsomes reisolated to remove free γ-LA” value ([10]; reversibility test) was 63%, the “effect on NADH:menadione reductase” value (NADH:menadione reductase) was “did not affect” and the “effect on UDP-glucuronic acid:5α-DHT glucuronosyl transferase” value [11] was “did not affect”. The “inhibition of NADPH-dependent [^3 H]4-MA binding” value [12] was “to the same degree as in experiments with rat liver microsomes”, the “left flank organ area” value ([13]; after injections, control 12.9±2.2) was 9.9±2.4 and the “right flank organ area” value ([13]; after injections, control 14.6±1.5) was 9.8±2.5 mm^2. The adrenal weight ([13]; control 0.022±0.004 g) was 0.021 ± 0.004 g, the “seminal vesicles and prostate weight” value ([13]; control 0.156±0.026 g) was 0.106 ± 0.022 g and the spleen weight ([13]; control 0.157±0.027) was 0.1867±0.048. For the same compound, the kidney weight ([13]; control 1.060±0.086 g) was 1.121 ± 0.073 g, the activity at 50 µM (LNCaP) was 27% and the activity at 100 µM (LNCaP) was 9 ± 4%. The Ki ([14]; γ-LA 5 μM) was 20 nM, the Ki ([14]; γ-LA 10 μM) was 40 nM and the inhibition at 5 µM [14, 16] was 30%. It also gave an inhibition at 10 µM [14, 16] of 50 ± 2%, an inhibition at 40 µM [14, 16] of 83 ± 12% and an inhibition at 200 µM [14, 16] of 96 ± 2%.
